Reference: ChEMBL document CHEMBL2069200, “Synthesis and evaluation of 4-(substituted styryl/alkenyl)-3,5-bis(4-hydroxyphenyl)-isoxazoles as ligands for the estrogen receptor” (Bioorg Med Chem Lett, 2012)

These compounds were tested against T1, Estrogen receptor (Homo sapiens) (UniProt P03372) (assay: Displacement of [3H]-estradiol from human ERalpha LBD expressed in Escherichia coli assessed as relative binding affinity relative to estradiol).
T1 sequence (whole entry): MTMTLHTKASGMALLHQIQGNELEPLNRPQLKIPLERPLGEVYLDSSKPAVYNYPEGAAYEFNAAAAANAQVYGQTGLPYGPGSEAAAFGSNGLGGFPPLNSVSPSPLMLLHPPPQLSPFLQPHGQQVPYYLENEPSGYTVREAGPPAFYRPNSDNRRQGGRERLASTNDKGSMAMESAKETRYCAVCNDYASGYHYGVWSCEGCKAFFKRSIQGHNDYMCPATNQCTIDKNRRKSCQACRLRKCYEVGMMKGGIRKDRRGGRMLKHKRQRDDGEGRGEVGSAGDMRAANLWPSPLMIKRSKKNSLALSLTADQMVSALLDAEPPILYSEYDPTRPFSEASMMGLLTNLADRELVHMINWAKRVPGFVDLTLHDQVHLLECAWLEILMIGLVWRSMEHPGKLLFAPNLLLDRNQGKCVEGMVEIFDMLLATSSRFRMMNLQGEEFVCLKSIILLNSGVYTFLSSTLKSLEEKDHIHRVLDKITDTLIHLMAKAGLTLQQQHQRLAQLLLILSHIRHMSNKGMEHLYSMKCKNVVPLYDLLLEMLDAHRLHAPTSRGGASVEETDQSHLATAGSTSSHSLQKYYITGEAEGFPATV

RBA | SMILES
0.6% | Cc1ccc(/C=C/c2c(-c3ccc(O)cc3)noc2-c2ccc(O)cc2)cc1
30% | Oc1ccc(-c2noc(-c3ccc(O)cc3)c2-c2ccc(O)cc2)cc1
3.1% | Oc1ccc(-c2noc(-c3ccc(O)cc3)c2/C=C/c2ccc(F)cc2)cc1
16.4% | Oc1ccc(/C=C/c2c(-c3ccc(O)cc3)noc2-c2ccc(O)cc2)cc1
0.8% | Oc1ccc(-c2noc(-c3ccc(O)cc3)c2/C=C/c2ccc(Cl)cc2)cc1

The next lines start with the compound.

SMILES | RBA
CC(C)(C)/C=C/c1c(-c2ccc(O)cc2)noc1-c1ccc(O)cc1 | 4.3%
Oc1ccc(-c2noc(-c3ccc(O)cc3)c2/C=C\c2ccccc2)cc1 | 8.7%
Oc1ccc(-c2noc(-c3ccc(O)cc3)c2/C=C/c2cccc(O)c2)cc1 | 8.7%
Oc1ccc(-c2noc(-c3ccc(O)cc3)c2/C=C/c2ccccc2)cc1 | 3.5%
CCCCC/C=C/c1c(-c2ccc(O)cc2)noc1-c1ccc(O)cc1 | 1.8%
CCc1c(-c2ccc(O)cc2)nn(-c2ccc(O)cc2)c1-c1ccc(O)cc1 | 36%
CCCCCCC/C=C/c1c(-c2ccc(O)cc2)noc1-c1ccc(O)cc1 | 1.3%
CCCCCC/C=C/c1c(-c2ccc(O)cc2)noc1-c1ccc(O)cc1 | 2.5%
Oc1ccc(-c2noc(-c3ccc(O)cc3)c2/C=C/c2ccc(C(F)(F)F)cc2)cc1 | 5.3%
Oc1ccc(-c2noc(-c3ccc(O)cc3)c2/C=C/c2cccc(C(F)(F)F)c2)cc1 | 1.5%
